pIC50: −log10 of the molar value.
Assays:
[1] = system: AGS human gastric cancer cell line with KRAS G12D mutation; assay: Cell proliferation inhibition experiment, 3D CellTiter-Glo, AGS; type: cell-based; conditions: AGS cells, 3D spheroid, 5 days
Description: (§1) AsPC-1 was purchased from ATCC, Article No.: CRL-1682; AGS was purchased from ATCC, Article No.: CRL-1739; RPMI1640 was purchased from Gibco, Article No.: 11875-093 2235123; F12K was purchased from Gibco, Article No.: 21127-022; FBS was purchased from Gibco, Article No.: 10099-141C; the trypsin (containing EDTA) was purchased from Gibco, Article No.: 25200-072; CellTiter Glo-3D was purchased from Progema, Article No.: G9683; the 384-well spheroid plate was purchased from Corning, Article No.: 3830; the white-bottom opaque 384-well plate was purchased from Corning, Article No.: 3570; the cell counter was purchased from CHEMOMETEC, model: NC-200; the microplate reader was purchased from PerkinElmer, model: Envison;
(§2) AsPC-1, an endogenous human pancreatic cancer cell AsPC-1 with KRAS^G12D mutation, was cultured in RPMI-1640 medium containing 10% FBS. AGS, a human gastric cancer cell line with KRAS^G12D mutation, was cultured in F-12K medium containing 10% FBS. Cells in logarithmic growth period were digested with trypsin (containing EDTA), collected and counted. 800 AsPC-1 cells/well or 400 […] were inoculated in a 384-well spheroid plate, and cultured overnight in an incubator with 5% CO2 to establish a 3D cell model. 1000× compound stock solutions with gradient concentrations of 3.16 times were prepared with DMSO, and 100-fold diluted to 10× compound stock solutions with the culture medium. The 10× compound stock solution was added to each cell culture well on the second day after cell inoculation, to give a final concentration of 1× and DMSO content of 0.1%. DMSO was used as the control, and the culture medium was used as the blank. After the compound was added, the cells were cultured for 5 days. 30 μl CellTiter-Glo working solution was added to each well, and mixed uniformly. The cells were incubated for 30 min, and allowed to stand at room temperature for 30 min. 40 μl of the mixture was transferred to a white-bottom opaque 384-well plate, and the luminescence was read on a microplate reader. The inhibition rate on cell proliferation was calculated by a formula: IR (%)=(RLU of control−RLU of compound)/(RLU of control−RLU of blank)×100%. The gradient concentrations of the compound and the corresponding inhibition rates were fitted by using XLFit four-parameter method, and the IC50 value was calculated. […] The results of some exemplary compounds are shown in Table 2 below (—means not tested).

AGS p-ERK = assay: Cell assay for p-ERK (HTRF, Advance ERK phospho-T202/Y204 kit); type: cell-based, human; conditions: AGS cells (KRAS G12D), 3 hrs with compound, inhibition of p-ERK level
Description: AGS was purchased from ATCC, Article No.: CRL-1739; F12K was purchased from Gibco, Article No.: 21127-022; FBS was purchased from Gibco, Article No.: 10099-141C; the trypsin (containing EDTA) was purchased from Gibco, Article No.: 25200-072; DMSO was purchased from VWRAMRESCO, Article No.: 0231-500ML; the 96-well cell culture plate was purchased from Corning, Article No.: 3599; the white-bottom opaque 96-well plate was purchased from Cisbio, Article No.: 66PL96025; Advance ERK phospho-T202/Y204 kit was purchased from Cisbio, Article No.: 64AERPEH; the cell counter was purchased from CHEMOMETEC, model: NC-200; the microplate reader was purchased from PerkinElmer, model: Envison.
AGS, an endogenous human gastric adenocarcinoma cell line with KRAS^G12D mutation, was cultured in F12K+10% FBS medium. On the first day of the experiment, cells in logarithmic growth period were digested with trypsin (containing EDTA), collected and counted, and about 20,000 cells/well were inoculated in a 96-well cell culture plate and cultured overnight in an incubator with 5% CO2. 1000× compound stock solutions with gradient concentrations of 3.16 times were prepared with DMSO, and 200-fold diluted to 5× compound stock solutions with the above culture medium. The 5× compound stock solution was added to each cell culture well on the second day after cell inoculation, to give a final concentration of 1× and DMSO content of 0.1%. DMSO was used as experimental control. After adding the compound, the cells were continuously cultured for 3 hrs. Then, the culture medium in the well was removed, and 50 μl/well of cell lysis buffer (from Advanced ERK phospho-T202/Y204 kit, the same hereinafter) was added, and mixed uniformly. The cells were cultured for 30 min. Then 16 μl of the mixture was transferred to a white-bottom opaque 96-well plate, and 16 μl of the cell lysis buffer was added to an additional well and used as a blank. After that, 4 μl of p-ERK HTRF antibody mixed solution (from Advanced ERK Phos Pho-T202/Y204 Kit) was added to each well. After incubation for 4 hrs, the fluorescence value (RLU) of HTRF was read on a microplate reader. The inhibition rate of the compound on p-ERK level was calculated by the formula IR (%)=(RLU of control−RLU of compound)/(RLU of control−RLU of blank)×100%. The compound concentration and the corresponding inhibition rate on p-ERK level in the cells were fitted by using Prism 8 four-parameter method, and the IC50 value was calculated.

[2] = system: AsPC-1 human pancreatic cancer cell with KRAS G12D mutation; assay: Cell proliferation inhibition experiment, 3D CellTiter-Glo, AsPC-1; type: cell-based; conditions: AsPC-1 cells, 3D spheroid, 5 days
Description: as §1, §2

Structure (SMILES) | pIC50 ([1]; Homo sapiens, 120 h) | pIC50 (AGS p-ERK; Homo sapiens) | pIC50 ([2]; Homo sapiens, ASPC1, 120 h) | pIC50 [1] | pIC50 (AGS p-ERK) | pIC50 [2]
[2H]C([2H])([2H])[C@@H]1Oc2nc(-c3cc(N)cc4cccc(C#C)c34)c(F)c3nc(OCC4(CN5CC[C@@H](F)C5)CC4)nc(c23)N2C[C@H]3CC[C@H](N3)[C@@H]12 [Z964, 5-ethynyl-4-((5S,5aS,6S,9R)-1-fluoro-12-((1-(((R)-3-fluoropyrrolidin-1-yl)methyl)cyclopropyl)methoxy)-5-(methyl-d3)-5a,6,7,8,9,10-hexahydro-5H-4-oxa-3,10a,11,13,14-pentaaza-6,9-methanonaphtho[1,8-ab]hepten-2-yl)naphthalen-2-amine] | 9.29 | 9.42 | 8.80 | – | – | –
C[C@@H]1Oc2nc(-c3cc(N)cc4ccc(F)c(F)c34)c(F)c3nc(OC[C@]45CCCN4CC(F)(F)C5)nc(c23)N2C[C@H]3CC[C@H](N3)[C@@H]12 [Z740, 4-((5S,5aS,6S,9R)-12-(((R)-2,2-difluorotetrahydro-1H-pyrrolizin-7a(5H)-yl)methoxy)-1-fluoro-5-methyl-5a,6,7,8,9,10-hexahydro-5H-4-oxa-3,10a,11,13,14-pentaaza-6,9-methanonaphtho[1,8-ab]heptan-2-yl)-5,6-difluoronaphthalen-2-amine] | 7.75 | 8.22 | 7.59 | – | – | –
C#Cc1cccc2cc(N)cc(-c3nc4c5c(nc(OCC67CCCN6CCC7=C(F)F)nc5c3F)N3C[C@H]5CC[C@H](N5)[C@H]3[C@H](C)O4)c12 (stereo partly drawn) [Z745, 4-((5S,5aS,6S,9R)-12-((1-(difluoromethylene)tetrahydro-1H-pyrrolizin-7a(5H)-yl)methoxy)-1-fluoro-5-methyl-5a,6,7,8,9,10-hexahydro-5H-4-oxa-3,10a,11,13,14-pentaaza-6,9-methanonaphtho[1,8-ab]hepten-2-yl)-5-ethynylnaphthalen-2-amine] | 8.40 | 9.08 | 8.35 | – | – | –
C#Cc1c(F)ccc2cc(N)cc(-c3nc4c5c(nc(OC[C@]67CCCN6CC(F)(F)C7)nc5c3F)N3C[C@H]5CC[C@H](N5)[C@H]3[C@H](C)O4)c12 [Z739, 4-((5S,5aS,6S,9R)-12-(((R)-2,2-difluorotetrahydro-1H-pyrrolizin-7a(5H)-yl)methoxy)-1-fluoro-5-methyl-5a,6,7,8,9,10-hexahydro-5H-4-oxa-3,10a,11,13,14-pentaaza-6,9-methanonaphtho[1,8-ab]hepten-2-yl)-5-ethynylnaphthalen-2-amine] | 7.96 | 8.58 | 8.21 | – | – | –
C#Cc1cccc2cc(N)c(F)c(-c3nc4c5c(nc(OCC6(CN7CCOCC7)CC6)nc5c3F)N3C[C@H]5CC[C@H](N5)[C@H]3[C@H](C)O4)c12 [Z707, 5-ethynyl-3-fluoro-4-((5S,5aS,6S,9R)-1-fluoro-5-methyl-12-((1-(morpholinemethyl)cyclopropyl)methoxy)-5a,6,7,8,9,10-hexahydro-5H-4-oxa-3,10a,11,13,14-pentaaza-6,9-methanonaphtho[1,8-ab]hepten-2-yl)naphthalen-2-amine] | – | – | – | 8.13 | 9.02 | 8.28
C#Cc1cccc2cccc(-c3nc4c5c(nc(OC[C@@]67CCCN6CCC7=C)nc5c3F)N3C[C@H]5CC[C@H](N5)[C@H]3[C@H](C)O4)c12 (single isomer, unassigned) [Z702] | – | – | – | 7.57 | 7.96 | 7.28
C#Cc1cccc2cc(N)cc(-c3nc4c5c(nc(OCC(C)C(O)C(F)F)nc5c3F)N3C[C@H]5CC[C@H](N5)[C@H]3[C@H](C)O4)c12 (stereo partly drawn) [Z742] | 6.81 | 7.28 | 6.51 | – | – | –
Cc1cc(-c2nc3c4c(nc(OCC5(CN6CCOCC6)CC5)nc4c2F)N2C[C@H]4CC[C@H](N4)C2[C@H](C)O3)c(C)c(N)c1C1CC1 (stereo partly drawn) [Z716] | 7.31 | 7.09 | 7.05 | – | – | –
C#Cc1c(F)ccc2cccc(-c3nc4c5c(nc(OC[C@@]67CCCN6CCC7=C)nc5c3F)N3C[C@H]5CC[C@H](N5)[C@H]3[C@H](C)O4)c12 [Z638, (5S,5aS,6S,9R)-2-(8-ethynyl-7-fluoronaphthalen-1-yl)-1-fluoro-5-methyl-12-(((S)-1-methylenetetrahydro-1H-pyrrolizin-7a(5H)-yl)methoxy)-5a,6,7,8,9,10-hexahydro-5H-4-oxa-3,10a,11,13,14-pentaaza-6,9-methanonaphtho[1,8-ab]heptene] | – | – | – | 7.71 | 8.11 | 7.49
C#Cc1c(F)ccc2cccc(-c3cc4nc(OC[C@]56CCCN5CCC6=C)nc5c4c(n3)O[C@@H](C)[C@@H]3[C@@H]4CC[C@H](CN53)N4)c12 [Z958, (5S,5aS,6S,9R)-2-(8-ethynyl-7-fluoronaphthalen-1-yl)-5-methyl-12-(((R)-1-methylenetetrahydro-1H-pyrrolizin-7a(5H)-yl)methoxy)-5a,6,7,8,9,10-hexahydro-5H-4-oxy-3,10a,11,13,14-pentaaza-6,9-methanonaphtho[1,8-ab]heptene] | 7.34 | 7.54 | 7.16 | – | – | –
C=C1CCN2CCC[C@]12COc1nc2c3c(nc(-c4cc(N)cc(Cl)c4C(F)(F)F)c(F)c3n1)O[C@@H](C)[C@@H]1[C@@H]3CC[C@H](CN21)N3 [Z963, 3-chloro-5-((5S,5aS,6S,9R)-1-fluoro-5-methyl-12-(((R)-1-methylenetetrahydro-1H-pyrrolizin-7a(5H)-yl)methoxy)-5a,6,7,8,9,10-hexahydro-5H-4-oxa-3,10a,11,13,14-pentaaza-6,9-methanonaphtho[1,8-ab]heptadien-2-yl)-4-(trifluoromethyl) aniline] | – | – | – | 9.68 | 9.41 | 8.77
C#Cc1cccc2cc(N)cc(-c3nc4c5c(nc(OCC67CC(F)(F)CN6CC=C7C)nc5c3F)N3C[C@H]5CC[C@H](N5)[C@H]3[C@H](C)O4)c12 (stereo partly drawn) [Z748] | 7.64 | 8.33 | 7.89 | – | – | –
C#Cc1cccc2cc(N)cc(-c3nc4c5c(nc(OCC67CCCN6CCC7(F)F)nc5c3F)N3C[C@H]5CC[C@H](N5)[C@H]3[C@H](C)O4)c12 (stereo partly drawn) [Z741, 4-((5S,5aS,6S,9R)-12-((1,1-difluorotetrahydro-1H-pyrrolizin-7a(5H)-yl)methoxy)-1-fluoro-5-methyl-5a,6,7,8,9,10-hexahydro-5H-4-oxa-3,10a,11,13,14-pentaaza-6,9-methanonaphtho[1,8-ab]hepten-2-yl)-5-ethynylnaphthalen-2-amine] | 7.72 | 8.39 | 8.00 | – | – | –
